# According to PubChem BioAssay (NCI):
#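 96-well plates; 48 h exposure; 5 concentrations. Endpoints by linear interpolation between flanking doses. Not reached: highest tested concentration assigned. GI50 marks 50% less growth. The concentration for full growth arrest is given as TGI.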
# Tests used:
# Assay in all cases: NCI tumour cell line growth inhibition, 48 h
# NCI-H23 lung = tested on: NCI-H23 lung
# NCI-H460 lung = tested on: NCI-H460 lung
# NCI-H522 lung = tested on: NCI-H522 lung
# NCI/ADR-RES ovarian = tested on: NCI/ADR-RES ovarian
# OVCAR-3 ovarian = tested on: OVCAR-3 ovarian
# OVCAR-4 ovarian = tested on: OVCAR-4 ovarian
# OVCAR-5 ovarian = tested on: OVCAR-5 ovarian
# OVCAR-8 ovarian = tested on: OVCAR-8 ovarian
# PC-3 prostate = tested on: PC-3 prostate
# RPMI-8226 leukemia = tested on: RPMI-8226 leukemia
# RXF 393 renal = tested on: RXF 393 renal
# SF-268 CNS = tested on: SF-268 CNS
# SF-295 CNS = tested on: SF-295 CNS
# SF-539 CNS = tested on: SF-539 CNS
# SK-MEL-2 melanoma = tested on: SK-MEL-2 melanoma
# SK-MEL-28 melanoma = tested on: SK-MEL-28 melanoma
# SK-MEL-5 melanoma = tested on: SK-MEL-5 melanoma
# SK-OV-3 ovarian = tested on: SK-OV-3 ovarian
# SN12C renal = tested on: SN12C renal
# SNB-19 CNS = tested on: SNB-19 CNS
# SNB-75 CNS = tested on: SNB-75 CNS
# SR leukemia = tested on: SR leukemia
# SW-620 colon = tested on: SW-620 colon
# T-47D breast = tested on: T-47D breast
# TK-10 renal = tested on: TK-10 renal
# U251 CNS = tested on: U251 CNS
# UACC-257 melanoma = tested on: UACC-257 melanoma
# UACC-62 melanoma = tested on: UACC-62 melanoma
# UO-31 renal = tested on: UO-31 renal
smiles,measurement,setting,value
C/C(=C\c1ccn(-c2ccccc2N)n1)[C@@H]1C[C@@H]2O[C@]2(C)CCC[C@H](C)[C@H](O)[C@@H](C)C(=O)C(C)(C)[C@@H](O)CC(=O)O1,TGI,NCI-H23 lung,> 50 µM
same,GI50,NCI-H460 lung,0.0201 µM
same,TGI,NCI-H460 lung,> 50 µM
same,GI50,NCI-H522 lung,0.0511 µM
same,TGI,NCI-H522 lung,0.386 µM
same,GI50,NCI/ADR-RES ovarian,0.154 µM
same,TGI,NCI/ADR-RES ovarian,7.21 µM
same,GI50,OVCAR-3 ovarian,0.0177 µM
same,TGI,OVCAR-3 ovarian,0.457 µM
same,GI50,OVCAR-4 ovarian,0.392 µM
same,TGI,OVCAR-4 ovarian,> 50 µM
same,GI50,OVCAR-5 ovarian,0.102 µM
same,TGI,OVCAR-5 ovarian,> 40.9 µM
same,GI50,OVCAR-8 ovarian,0.0617 µM
same,TGI,OVCAR-8 ovarian,> 50 µM
same,GI50,PC-3 prostate,0.0371 µM
same,TGI,PC-3 prostate,> 50 µM
same,GI50,RPMI-8226 leukemia,0.0188 µM
same,TGI,RPMI-8226 leukemia,> 24.1 µM
same,GI50,RXF 393 renal,0.0526 µM
same,TGI,RXF 393 renal,0.604 µM
same,GI50,SF-268 CNS,0.111 µM
same,TGI,SF-268 CNS,> 50 µM
same,GI50,SF-295 CNS,0.0797 µM
same,TGI,SF-295 CNS,> 50 µM
same,GI50,SF-539 CNS,0.0334 µM
same,TGI,SF-539 CNS,0.236 µM
same,GI50,SK-MEL-2 melanoma,0.0819 µM
same,TGI,SK-MEL-2 melanoma,> 50 µM
same,GI50,SK-MEL-28 melanoma,1.07 µM
same,TGI,SK-MEL-28 melanoma,> 50 µM
same,GI50,SK-MEL-5 melanoma,0.0286 µM
same,TGI,SK-MEL-5 melanoma,> 50 µM
same,GI50,SK-OV-3 ovarian,0.081 µM
same,TGI,SK-OV-3 ovarian,> 50 µM
same,GI50,SN12C renal,0.145 µM
same,TGI,SN12C renal,> 50 µM
same,GI50,SNB-19 CNS,0.184 µM
same,TGI,SNB-19 CNS,> 50 µM
same,GI50,SNB-75 CNS,0.00907 µM
same,TGI,SNB-75 CNS,0.186 µM
same,GI50,SR leukemia,0.0267 µM
same,TGI,SR leukemia,> 50 µM
same,GI50,SW-620 colon,0.0245 µM
same,TGI,SW-620 colon,> 50 µM
same,GI50,T-47D breast,0.0692 µM
same,TGI,T-47D breast,> 50 µM
same,GI50,TK-10 renal,0.143 µM
same,TGI,TK-10 renal,> 50 µM
same,GI50,U251 CNS,0.0348 µM
same,TGI,U251 CNS,> 33.6 µM
same,TGI,UACC-257 melanoma,> 50 µM
same,GI50,UACC-62 melanoma,0.111 µM
same,TGI,UACC-62 melanoma,> 50 µM
same,GI50,UO-31 renal,0.302 µM
same,TGI,UO-31 renal,> 50 µM
